Results: US20100092443A1, “NOVEL COMBINATIONS OF NITROGENATED HETEROCYCLIC ANTIBACTERIAL COMPOUNDS WITH OTHER ANTIBACTERIAL COMPOUNDS AND THE USE OF SAME AS DRUGS” (priority 2008, published 2010)
Counter-ions that a name gives are not always drawn.

Columns and labels:
Assay type in all cases: cell-based
C. freundii = assay: MIC, dilutions in liquid medium, alone and combined with NXL105
E. coli = assay: microbe, parasite or virus in culture
Protocol: (§1) In vitro activity, method of dilutions in liquid medium:
(§2) A series of test 96-well microtiter plates are prepared in which the same quantity of sterile nutritive medium is distributed. […] After 24 h of incubation in a 37° C. oven, growth inhibition is evaluated by transillumination, which makes it possible to determine the minimum inhibitory concentrations (MICS) expressed in μg/ml.

K. oxytoca = assay: MIC, dilutions in liquid medium, alone and combined with NXL105
Pseudomonas aeruginosa = assay: as above
Protocol: as §1
A series of test 96-well microtiter plates are prepared in which the same quantity of sterile nutritive medium is distributed. Increasing quantities of the compound to be studied, namely the antibacterial compound alone and the inventive combination with the compound of formula (I) of example 1, are distributed in each plate in the respective proportions 2:1 and 4:1, and then each plate is inoculated with a bacterial strain of Pseudomonas aeruginosa. After 24 h of incubation in a 37° C. oven, growth inhibition is evaluated by transillumination, which makes it possible to determine the minimum inhibitory concentrations (MICS) expressed in μg/ml.

K. pneumoniae = assay: as above
Protocol: as §1, §2

E. cloacae = assay: as above
Protocol: as §1, §2

E. aerogenes = assay: as above; conditions: E. aerogenes EAR2; Case-R + FEP-R

## Cn1ncc2c1[C@@H](CN)N1C[C@H]2N(OS(=O)(=O)O)C1=O (relative stereo) [NXL105, Sodium and Trifluoroacetate Salts of trans 8-(aminomethyl)-4,8-dihydro-1-methyl-5-(sulphooxy)-4,7-methano-7H-pyrazolo[3,4-e][1,3]diazepin-6(5H)-one]
C. freundii; C. freundii (no alias), AmpC + TEM-1
  MIC: 16 µg/mL
C. freundii; C. freundii (no alias, table row r121), AmpC
  MIC: 16 µg/mL
C. freundii; C. freundii (no alias, table row r122), AmpC
  MIC: 32 µg/mL
C. freundii; C. freundii (no alias, table row r123), AmpC
  MIC: >32 µg/mL
C. freundii; C. freundii (no alias, table row r125), AmpC
  MIC: 32 µg/mL
E. coli; E. coli 2138, KPC-2 + TEM-1
  MIC: >32 µg/mL
E. coli; E. coli (no alias), CTX-M-15 + TEM-1 + OXA-1
  MIC: >32 µg/mL
E. coli; E. coli (no alias), Cephalosporinase
  MIC: >32 µg/mL
E. coli; E. coli (no alias), SHV-4
  MIC: >32 µg/mL
E. coli; E. coli (no alias), TEM-3
  MIC: >32 µg/mL
E. coli; E. coli IND, VEB-1 + CMY-2
  MIC: 16 µg/mL
E. coli; E. coli TN06, CTX-M-2 + TEM-1
  MIC: 32 µg/mL
E. coli; E. coli TN13, CTX-M-14 + CMY-2 + TEM-1
  MIC: 32 µg/mL
E. coli; E. coli Tunisie clone E4, CTX-M-16 + TEM-1
  MIC: >32 µg/mL
K. oxytoca; K. oxytoca 1431, TEM-129
  MIC: 32 µg/mL
K. oxytoca; K. oxytoca 16944, OXY-2, TEM-1
  MIC: >32 µg/mL
Pseudomonas aeruginosa; P. aeruginosa 391HG2
  MIC: 1.000 µg/mL
Pseudomonas aeruginosa; P. aeruginosa 391HG21
  MIC: 0.500 µg/mL
Pseudomonas aeruginosa; P. aeruginosa 391HG38
  MIC: 32.000 µg/mL
Pseudomonas aeruginosa; P. aeruginosa 391HG39
  MIC: 4.000 µg/mL
Pseudomonas aeruginosa; P. aeruginosa 391HG58
  MIC: 1.000 µg/mL
Pseudomonas aeruginosa; P. aeruginosa 391HG118
  MIC: 0.125 µg/mL
Pseudomonas aeruginosa; P. aeruginosa 391HG123
  MIC: >32 µg/mL
Pseudomonas aeruginosa; P. aeruginosa 391HG158
  MIC: 32.000 µg/mL
Pseudomonas aeruginosa; P. aeruginosa 391HG271
  MIC: 32.000 µg/mL
Pseudomonas aeruginosa; P. aeruginosa 391HG329
  MIC: 2.000 µg/mL
Pseudomonas aeruginosa; P. aeruginosa 391K767
  MIC: 1.000 µg/mL
Pseudomonas aeruginosa; P. aeruginosa 391K1455
  MIC: 2.000 µg/mL
Pseudomonas aeruginosa; P. aeruginosa 391K1523
  MIC: 2.000 µg/mL
Pseudomonas aeruginosa; P. aeruginosa 391K1525
  MIC: 4.000 µg/mL
Pseudomonas aeruginosa; P. aeruginosa 391K1536
  MIC: 2.000 µg/mL
Pseudomonas aeruginosa; P. aeruginosa 391K2376
  MIC: 2.000 µg/mL
Pseudomonas aeruginosa; P. aeruginosa 391K2379
  MIC: 4.000 µg/mL
Pseudomonas aeruginosa; P. aeruginosa 391K2415
  MIC: 2.000 µg/mL
Pseudomonas aeruginosa; P. aeruginosa 391KB9
  MIC: 0.250 µg/mL
Pseudomonas aeruginosa; P. aeruginosa 391KB14
  MIC: 1.000 µg/mL
Pseudomonas aeruginosa; P. aeruginosa 391KB21
  MIC: 2.000 µg/mL
Pseudomonas aeruginosa; P. aeruginosa 391KB33
  MIC: 0.500 µg/mL
Pseudomonas aeruginosa; P. aeruginosa 391KB38
  MIC: 1.000 µg/mL
Pseudomonas aeruginosa; P. aeruginosa 391KB62
  MIC: 4.000 µg/mL
Pseudomonas aeruginosa; P. aeruginosa 391KB68
  MIC: 0.500 µg/mL
Pseudomonas aeruginosa; P. aeruginosa 391KB90
  MIC: 8.000 µg/mL
Pseudomonas aeruginosa; P. aeruginosa 391KB91
  MIC: 0.500 µg/mL
Pseudomonas aeruginosa; P. aeruginosa 391KB99
  MIC: 0.500 µg/mL
Pseudomonas aeruginosa; P. aeruginosa 391KB103
  MIC: 0.500 µg/mL
Pseudomonas aeruginosa; P. aeruginosa 391KB105
  MIC: 1.000 µg/mL
Pseudomonas aeruginosa; P. aeruginosa 391KB106
  MIC: 2.000 µg/mL
Pseudomonas aeruginosa; P. aeruginosa 391KB107
  MIC: 1.000 µg/mL
Pseudomonas aeruginosa; P. aeruginosa 391KB114
  MIC: 4.000 µg/mL
Pseudomonas aeruginosa; P. aeruginosa 391KB127
  MIC: 0.500 µg/mL
Pseudomonas aeruginosa; P. aeruginosa 391KB135
  MIC: 1.000 µg/mL
Pseudomonas aeruginosa; P. aeruginosa 391KB136
  MIC: 0.500 µg/mL
Pseudomonas aeruginosa; P. aeruginosa 391KB137
  MIC: 0.500 µg/mL
Pseudomonas aeruginosa; P. aeruginosa 391KB138
  MIC: 0.500 µg/mL
Pseudomonas aeruginosa; P. aeruginosa 391KB139
  MIC: 2.000 µg/mL
Pseudomonas aeruginosa; P. aeruginosa 391KB140
  MIC: 2.000 µg/mL
Pseudomonas aeruginosa; P. aeruginosa 391KB141
  MIC: 4.000 µg/mL
Pseudomonas aeruginosa; P. aeruginosa 391KB142
  MIC: 1.000 µg/mL
Pseudomonas aeruginosa; P. aeruginosa 391KB143
  MIC: 0.500 µg/mL
Pseudomonas aeruginosa; P. aeruginosa 391KB144
  MIC: 16.000 µg/mL
Pseudomonas aeruginosa; P. aeruginosa 391QBR2
  MIC: >32 µg/mL
Pseudomonas aeruginosa; P. aeruginosa 391QBR3
  MIC: 2.000 µg/mL
Pseudomonas aeruginosa; P. aeruginosa 391QBR4
  MIC: 2.000 µg/mL
Pseudomonas aeruginosa; P. aeruginosa 391QBR5
  MIC: 1.000 µg/mL
Pseudomonas aeruginosa; P. aeruginosa 391QBR7
  MIC: 2.000 µg/mL
Pseudomonas aeruginosa; P. aeruginosa 391QBR8
  MIC: 2.000 µg/mL
Pseudomonas aeruginosa; P. aeruginosa 391QBR9
  MIC: 2.000 µg/mL
Pseudomonas aeruginosa; P. aeruginosa 391QBR10
  MIC: 4.000 µg/mL
Pseudomonas aeruginosa; P. aeruginosa ATCC 27853
  MIC: 0.060 µg/mL
Pseudomonas aeruginosa; P. aeruginosa C3719
  MIC: >32 µg/mL
Pseudomonas aeruginosa; P. aeruginosa PA2192
  MIC: 0.125 µg/mL
K. pneumoniae; K. pneumoniae 26, SHV-5
  MIC: 32 µg/mL
K. pneumoniae; K. pneumoniae 60, SHV-2 + TEM-2 + PER
  MIC: 32 µg/mL
K. pneumoniae; K. pneumoniae 157, SHV-5 + TEM-26
  MIC: >32 µg/mL
K. pneumoniae; K. pneumoniae 181, SHV-5 + TEM-10
  MIC: >32 µg/mL
K. pneumoniae; K. pneumoniae 236, SHV-5 + TEM-10
  MIC: >32 µg/mL
K. pneumoniae; K. pneumoniae 238, SHV-2 + TEM-12 + CTX-M-2
  MIC: >32 µg/mL
K. pneumoniae; K. pneumoniae 243, SHV-5 + TEM-63
  MIC: >32 µg/mL
K. pneumoniae; K. pneumoniae 253, SHV-2 + TEM-12 + CTX-M-2
  MIC: >32 µg/mL
K. pneumoniae; K. pneumoniae 427, SHV-1 + TEM-1B + CTX-M-3
  MIC: >32 µg/mL
K. pneumoniae; K. pneumoniae 441, SHV-1 + TEM-2 + PER
  MIC: >32 µg/mL
K. pneumoniae; K. pneumoniae 444, SHV-5 + TEM-2 + PER
  MIC: >32 µg/mL
K. pneumoniae; K. pneumoniae 449, SHV-1 + TEM-2 + PER
  MIC: 32 µg/mL
K. pneumoniae; K. pneumoniae 465, TEM-1B + CTX-M-2
  MIC: >32 µg/mL
K. pneumoniae; K. pneumoniae 1734, FOX-3 + TEM-1
  MIC: >32 µg/mL
K. pneumoniae; K. pneumoniae 9701, CMY-4 + TEM-1
  MIC: >32 µg/mL
K. pneumoniae; K. pneumoniae ATCC 700603, SHV-18
  MIC: >32 µg/mL
K. pneumoniae; K. pneumoniae CL5761, KPC-3
  MIC: >32 µg/mL
K. pneumoniae; K. pneumoniae CL5762, KPC-3
  MIC: >32 µg/mL
K. pneumoniae; K. pneumoniae CL5763, KPC-3
  MIC: >32 µg/mL
K. pneumoniae; K. pneumoniae KOL, MOX-2 + SHV-5 + TEM-1
  MIC: >32 µg/mL
K. pneumoniae; K. pneumoniae KP04, CTX-M-14
  MIC: >32 µg/mL
K. pneumoniae; K. pneumoniae Patient 1BHR, VIM-4 + CTX-M-15 = CMY-4 + TEM-1
  MIC: 16 µg/mL
K. pneumoniae; K. pneumoniae Patient F, VIM-1 + SHV-5
  MIC: >32 µg/mL
K. pneumoniae; K. pneumoniae SLK54, ACC-1 + TEM-1
  MIC: >32 µg/mL
K. pneumoniae; K. pneumoniae TN58467, DHA-1 + SHV-2a + TEM-1
  MIC: >32 µg/mL
K. pneumoniae; K. pneumoniae Tunisie clone K1, CTX-M-16 + OXA-1
  MIC: >32 µg/mL
K. pneumoniae; K. pneumoniae Tunisie clone K4, CTX-M-15 + TEM-1 + OXA-1
  MIC: 16 µg/mL
K. pneumoniae; K. pneumoniae VA8, KPC-3
  MIC: >32 µg/mL
K. pneumoniae; K. pneumoniae VAKP, KPC-2
  MIC: >32 µg/mL
K. pneumoniae; K. pneumoniae YC, KPC-2
  MIC: >32 µg/mL
E. cloacae; E. cloacae 7506, KPC-2 + TEM-1 + KLUC-2
  MIC: 32 µg/mL
E. cloacae; E. cloacae (no alias), AmpC
  MIC: 32 µg/mL
E. cloacae; E. cloacae, AmpC
  MIC: >32 µg/mL
E. aerogenes
  MIC: >32 µg/mL
